One experiment has as its target Tubulin (Sus scrofa, UniProt P02554+P02550). Kind of experiment: Inhibition of porcine brain tubulin assembly measured every 1 min for 60 mins by turbidimetric analysis.
A further experiment concerns HCT-116. Kind of experiment: cells. The note with it: Homo sapiens, HCT-116, 72 h.
In another experiment the test system is MDA-MB-435. Kind of experiment: cells. The note with it: Homo sapiens, MDA-MB-435, 72 h.
The subject of another experiment is CCRF-CEM. Kind of experiment: Cytotoxicity against human CEM cells after 72 hrs by MTT assay. In kind it is functional, cell-based.

Molecules are shown by their SMILES.

Description for MDA-MB-435: Cytotoxicity against human MDA-MB-435 cells after 72 hrs by MTT assay

As for `COc1ccc2c(c1)CCC(=O)/C2=C/c1ccc(OC)c(OC)c1OC`, the half-maximal inhibitory concentration (IC50) at Tubulin came out at 25780 nM; with HCT-116 it was 1680 nM; in the experiment with MDA-MB-435 it was 950 nM; in the experiment with CCRF-CEM, 850 nM.
As to `COc1cccc2c1CCC(=O)/C2=C/c1cc(OC)c(OC)c(OC)c1`, the IC50 was 18680 nM on Tubulin, 1240 nM in the experiment with HCT-116, 610 nM with MDA-MB-435 and 2190 nM in the experiment with CCRF-CEM.
`COc1ccc2c(c1)CCC(=O)/C2=C/c1ccc(OC)c(OC)c1`: the IC50 on Tubulin came out at 6420 nM; in the experiment on HCT-116, 130 nM; in the experiment on MDA-MB-435, 200 nM; in the experiment on CCRF-CEM, 72 nM.

For the origin of these results see ChEMBL document CHEMBL2150986, “Synthesis and biological evaluation of 1-benzylidene-3,4-dihydronaphthalen-2-one as a new class of microtubule-targeting agents” (J Med Chem, 2012).
